The source of these data is patent EP0514540B1, “PYRROLO 2,3-d]PYRIMIDINE DERIVATIVE, PROCESS FOR PREPARING THE SAME, AND PHARMACEUTICAL PREPARATION COMPRISING THE DERIVATIVE AS ACTIVE INGREDIENT” (TEIJIN LIMITED, priority 1989, dated 1991).

The subject of test [1] is hypoxemia model animals. The experiment in a line: Effect on partial pressure of gases in arterial blood, injection system, Method B (acetic acid-induced hypoxemia). The note with it: 2.0% acetic acid intratracheal 0.6 ml/kg, PaO2 60-70 mmHg, intravenous continuous 0.1 mg/kg/min, after minus before administration. Format: in vivo, Male Wister strain rats. As for the experimental part:
(§1) Example 59: Effect on Partial Pressure Value of Gases in Arterial Blood (Injection system)
Male Wister strain rats (body about 300 g) were anesthetized with halothane inhalant, and then 2.0% acetic acid was intratrachealy injected at 0.6 ml/kg to induce a respiratory insufficiency. The animals were intra-peritoneally anesthetized with urethane-α-chloralose, and a cannula was inserted into the femoral artery. After the hypoxemic state (PaO2: 60-70 mmHg) was observed a compound in accordance with the present invention (test substance) was intravenously injected into these hypoxemia model animals by a continuous manner (0.1 mg/kg/min), and then a partial pressure value of gases (PaO2, PaCO2) in arterial blood were immediately determined.

In a further test the test system is hypoxemia state. The test is described as follows: Effect on partial pressure of gases in arterial blood, oral administration system (acetic acid-induced hypoxemia). The note with it: orally administered; 2.0% acetic acid intratracheal 0.8 ml/kg; 60 min. after the administration. Format: in vivo, Male Wistar strain rats. How it is done: Example 60: Effect on Partial Pressure Value of Gases in Arterial Blood (Oral Administration System)
Male Wistar strain rats (body weight about 250 g) fasted overnight were anesthetized with halothane inhalant, and then a cannula was inserted into the femoral artery. After the animals recovered from the anesthesia, they were again anesthetized with halothane inhalant, and then 2.0% acetic acid was intratrachealy injected at 0.8 ml/kg to induce a hypoxemia state. After the hypoxemic state was observed over about 60 min., a compound in accordance with the present invention (test substance) was orally administered to the animals. On 60 min. after the administration, the partial pressure value of gases (PaO2, PaCO2) in arterial blood were determined.

In test [2] the test system is hypoxemia model animals. The experiment in a line: Effect on partial pressure of gases in arterial blood, injection system, Method A (carbon powder-induced hypoxemia). Format: in vivo, Male Wister strain rats. The note with it: carbon powder intratracheal, PaO2 50-60 mmHg, intravenous continuous 0.1 mg/kg/min., 10 min, after minus before administration. How it is done:
as §1
Male Wister strain rats (body weight about 300 g) were anesthetized intra-peritoneally with urethane, and a cannula was inserted into the respiratory tract and the femoral artery, respectively. A suspension (30-100 µm, 10 mg/ml) of carbon powder in a corn oil was intratrachealy injected to induce a hypoxemia state (PaO2; 50-60 mmHg). A compound in accordance with the present invention was intravenously injected into these hypoxemia model animals by a continuous manner (0.1 mg/kg/min., 10 min), and then a partial pressure value of gases (PaO2, PaCO2) in arterial blood were immediately determined.

As for `C=CCNc1nc(N(C)C)c2ccn(C)c2n1` [Compound 165], in the test with hypoxemia model animals [1], the “Activity for Decreasing PaCO2 ΔPaCO2” value is reported as “+1.1 mmHg” and the “Activity for Increasing PaO2 ΔPaO2” value is reported as “+7.9 mmHg”. In the test with hypoxemia state, the “Activity for Decreasing PaCO2 ΔPaCO2” value is “± (ΔPaCO2 ±: 0 - -3 mmHg)” and the “Activity for Increasing PaO2 ΔPaO2” value is recorded as “+ (ΔPaO2 +: +3 - +6 mmHg)”.

Regarding `C=CCNc1nc(N2CCOCC2)c2ccn(C)c2n1` [Compound 124], in the test on hypoxemia model animals [1], the “Activity for Decreasing PaCO2 ΔPaCO2” value is -4.0 mmHg and the “Activity for Increasing PaO2 ΔPaO2” value is recorded as “+5.7 mmHg”. In the test with hypoxemia state, the “Activity for Decreasing PaCO2 ΔPaCO2” value is “+ (+: -3 - -6 mmHg)” and the “Activity for Increasing PaO2 ΔPaO2” value is “+ (ΔPaO2 +: +3 - +6 mmHg)”.

In the case of `C=CCNc1nc(NC(C)c2ccccc2)c2ccn(C)c2n1` (racemic) [Compound 156, (±)-2-allylamino-7-methyl-4-(1-phenylethyl-amino)-7H-pyrrolo[2,3-d]pyrimidine], in the test on hypoxemia model animals [1], the “Activity for Decreasing PaCO2 ΔPaCO2” value is reported as -9.1 mmHg and the “Activity for Increasing PaO2 ΔPaO2” value is “+19.7 mmHg”. In addition, in the test on hypoxemia state, the “Activity for Decreasing PaCO2 ΔPaCO2” value is on record as “+ (+: -3 - -6 mmHg)” and the “Activity for Increasing PaO2 ΔPaO2” value is “+ +”.

Take `C=CCNc1nc(N2CCN(C(c3ccc(F)cc3)c3ccc(F)cc3)CC2)c2ccn(C)c2n1` [Compound 133]: in the test on hypoxemia model animals [2], the “Activity for Decreasing PaCO2 ΔPaCO2” value is on record as -0.6 mmHg and the “Activity for Increasing PaO2 ΔPaO2” value was “+6.9 mmHg”.

For the compound `C=CCNc1nc(N(C)CCc2ccccc2)c2ccn(C)c2n1` [Compound 167], in the test on hypoxemia model animals [1], the “Activity for Decreasing PaCO2 ΔPaCO2” value is reported as -6.6 mmHg and the “Activity for Increasing PaO2 ΔPaO2” value was “+11.3 mmHg”.

As for `C=CCNc1nc(N2CCN(C(c3ccc(F)cc3)c3ccc(F)cc3)CC2)c2ccn(CC=C)c2n1` [Compound 143], in the test with hypoxemia model animals [2], the “Activity for Decreasing PaCO2 ΔPaCO2” value is “+1.1 mmHg” and the “Activity for Increasing PaO2 ΔPaO2” value is reported as “+5.0 mmHg”.

As to `C=CCNc1nc(NCCc2ccccc2)c2ccn(C)c2n1` [Compound 164], in the test on hypoxemia model animals [1], the “Activity for Decreasing PaCO2 ΔPaCO2” value was -19.2 mmHg and the “Activity for Increasing PaO2 ΔPaO2” value is recorded as “+15.4 mmHg”.

Regarding `C=CCNc1nc(NC2CCCCC2)c2ccn(C)c2n1` [Compound 150], in the test with hypoxemia model animals [1], the “Activity for Decreasing PaCO2 ΔPaCO2” value was -18.6 mmHg and the “Activity for Increasing PaO2 ΔPaO2” value is listed as “+18.4 mmHg”.

Regarding `C=CCNc1nc(N2CCC(OC(C)=O)CC2)c2ccn(C)c2n1` [Compound 119], in the test with hypoxemia model animals [2], the “Activity for Decreasing PaCO2 ΔPaCO2” value was -2.6 mmHg and the “Activity for Increasing PaO2 ΔPaO2” value was “+7.1 mmHg”.

As for `C=CCNc1nc(NC2CCCc3ccccc32)c2ccn(C)c2n1` (centres unmarked) [Compound 162], in the test on hypoxemia model animals [1], the “Activity for Decreasing PaCO2 ΔPaCO2” value was -17.2 mmHg and the “Activity for Increasing PaO2 ΔPaO2” value is “+18.1 mmHg”.
